The values that follow come from article PMC7830758, “Revisiting the Rate-Limiting Step of the ANS–Protein Binding at the Protein Surface and Inside the Hydrophobic Cavity” (Molecules, 2021).

The target in experiment [1] is T1, bovine serum albumin (BSA) (Bos taurus, UniProt P02769).
T1 construct: gene ALB
The experiment can be described thus: ANS fluorescence titrated with protein, MCR-ALS scores, one-site fit. It is filed as binding. The conditions noted are these: read-out: K (converted).

A further experiment concerns the target T2, lysozyme (Gallus gallus, UniProt P00698).
T2 construct: gene LYZ
The description is as above. The class given is binding. The conditions noted are these: read-out: K (converted).

T1 sequence (P02769 25-607): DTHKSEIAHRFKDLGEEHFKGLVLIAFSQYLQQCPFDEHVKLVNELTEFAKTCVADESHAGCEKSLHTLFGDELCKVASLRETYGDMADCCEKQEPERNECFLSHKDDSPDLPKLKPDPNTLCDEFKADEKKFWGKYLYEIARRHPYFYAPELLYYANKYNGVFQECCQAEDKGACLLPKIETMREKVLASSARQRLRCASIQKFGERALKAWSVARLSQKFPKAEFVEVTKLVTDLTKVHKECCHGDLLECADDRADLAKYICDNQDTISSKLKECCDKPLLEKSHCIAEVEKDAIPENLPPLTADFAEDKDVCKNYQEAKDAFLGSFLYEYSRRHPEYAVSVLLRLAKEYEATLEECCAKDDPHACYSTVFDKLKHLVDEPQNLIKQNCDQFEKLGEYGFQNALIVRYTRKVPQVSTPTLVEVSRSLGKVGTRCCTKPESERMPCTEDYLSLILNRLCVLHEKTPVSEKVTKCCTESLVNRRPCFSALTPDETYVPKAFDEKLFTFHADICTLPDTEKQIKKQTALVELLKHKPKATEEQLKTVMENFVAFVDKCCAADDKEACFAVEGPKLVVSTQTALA
T2 sequence (P00698 19-147): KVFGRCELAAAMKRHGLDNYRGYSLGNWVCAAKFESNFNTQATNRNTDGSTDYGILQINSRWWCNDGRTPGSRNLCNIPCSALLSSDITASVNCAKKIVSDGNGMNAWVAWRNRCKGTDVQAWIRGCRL

In the case of `O=S(=O)(O)c1cccc2cccc(Nc3ccccc3)c12` [8-Anilino-1-naphthalenesulfonic acid], the Kd was 1.06 µM in experiment [1] and 172 µM on lysozyme.
